Reference: patent US8945832B2, “Treatment prediction involving HMGCR” (Atlas Antibodies AB, priority 2008, dated 2015)
Like-named read-outs stand apart in the source and are kept apart here.

Legend:
[1] = tested on: MCF-7 breast cancer cells; conditions: MCF-7 cells; cited from earlier work
[2] = tested on: primary breast tumors; experiment: Gene expression analysis of breast cancer: RFS by HMGCR mRNA level in tamoxifen treated patients (GSE 9893); type: in vivo, human
Excerpt: Data was collected from a previously performed microarray study, Chanrion et al, based on a patient cohort of 155 primary breast tumors obtained from patients who had undergone initial surgery between 1989 and 2001 at the Cancer Research Center of Val d'Aurelle in Montpellier, the Bergonie' Institute in Bordeaux, or the Department of Obstetrics and Gynecology of Turin.
The median follow-up time for all patients was 5.5 years. Eight tumors were ER negative, and six of these tumors were progesterone receptor (PR) positive. No patient received neoadjuvant systemic chemotherapy. […] 121 patients also received adjuvant radiotherapy. Raw gene expression data and clinical data were downloaded from Gene Expression Omnibus (http://www.ncbi.nlm.nih.gov/GEO/) (accession number GSE 9893). The log ratio of gene expression values was used without further transformation. For statistical analysis HMGCR mRNA expression levels were analysed as a continuous variable.

[3] = tested on: breast cancer; conditions: 5 years tamoxifen compared to no adjuvant treatment; cited from earlier work
[4] = tested on: stage II invasive breast cancer; experiment: Randomized premenopausal cohort: recurrence free survival, adjuvant tamoxifen vs no adjuvant endocrine treatment, by HMGCR protein status (IHC on TMA); type: in vivo, human; conditions: for outcome (RFS) of HMGCR positive and ER negative vs HMGCR negative and ER positive patients: tamoxifen treated cohort
Description: The inclusion criteria were pre-menopausal patients, or patients younger than 50 years, with stage II (pT2 N0 M0, pT1-2 N1 M0) invasive breast cancer treated by modified mastectomy or breast conserving surgery with axillary lymph node dissection. Post-operative radiotherapy (50 Gy) was administered after breastconserving surgery and all lymph node-positive patients received locoregional radiotherapy. […] The study design is described in detail elsewhere (Rydén L et al, Eur J Cancer, 2005, 41(2): 256-64). Ethical permission was obtained from the Local Ethics Committees at Lund and Linköping Universities.
Tissue blocks from 500 of the 564 patients could be retrieved for TMA-construction. All cases had been histopathologically re-evaluated on hematoxylin and eosin stained slides. TMA:s were constructed by sampling 2×0.6 mm cores per case from areas representative of invasive cancer, using an manual arraying device (MTA-1, Beecher Inc, WI, USA). […] IHC staining of ER and PR had been performed previously. In line with current clinical praxis, a cut-off at 10% positive nuclei was used to define hormone receptor positivity.
For statistical analyses, the cytoplasmic intensity (CI) level was evaluated, in line with what is described in Examples, Section 3 above. […] Two categories were defined: “HMGCR high” corresponding to CI=weak, moderate and strong and “HMGCR low” corresponding to CI=absent This classification of samples was used for RFS analysis according to the Kaplan-Meier estimator, and the log-rank test was used to compare survival in different strata. ER and PR negativity was defined as <10% positively staining nuclei, according to current clinical guidelines in Sweden. All statistical tests were two-sided, and p-values of <0.05 were considered significant. All calculations were made with the statistical package SPSS 17.0 (SPSS Inc. Illinois, USA).

[5] = tested on: breast cancer; conditions: cited from earlier work
[6] = tested on: breast cancer; conditions: cited from earlier work; remark: listed apart in the source
[7] = tested on: breast cancer; conditions: patients with ER positive tumors, irrespective of lymph node status; five years adjuvant; cited from earlier work
[8] = tested on: breast cancer; conditions: cited from earlier work; remark: listed apart in the source

For `CC[C@H](C)C(=O)O[C@H]1CCC=C2C=C[C@H](C)[C@H](CC[C@@H]3C[C@@H](O)CC(=O)O3)[C@H]21` [mevastatin], the “induction of HMGCR activity” value [1] is given as 10- to 15 fold and the “induction of HMGCR mRNA expression” value [1] is given as 2.5- to 3.5 fold.
For `CC/C(=C(\c1ccccc1)c1ccc(OCCN(C)C)cc1)c1ccccc1` [tamoxifen], the “RFS of high vs low HMGCR mRNA expression” value ([2]; ER positive subjects only, adjuvant tamoxifen, FIG. 13b) is given as “improved RFS”, the “RFS of high vs low HMGCR mRNA expression” value ([2]; all 155 patients, adjuvant tamoxifen 20 mg daily for 5 years, FIG. 13a) is given as “significantly better RFS” and the “reduction in breast cancer specific mortality” value [3] is given as 34%. The “reduction in disease recurrence” value [3] was 41%, the “RFS of HMGCR high vs HMGCR low category” value ([4]; ER positive tamoxifen treated subjects, FIG. 2a) was “significantly better RFS” and the “effect of tamoxifen treatment on recurrence free survival” value (from here on “effect … on recurrence free survival”) ([4]; HMGCR negative and ER negative subjects, FIG. 10b) was “no positive effect”. For the same compound, the “effect … on recurrence free survival” value ([4]; HMGCR positive and ER negative subjects, FIG. 9a) was “improved survival”, the “effect … on recurrence free survival” value ([4]; HMGCR positive and ER negative, lymph node positive patients, FIG. 9b) was “further enhanced” and the “tamoxifen impact on survival (RFS)” value ([4]; HMGCR positive and PR negative subjects, FIG. 12, not statistically significant) was “trend of tamoxifen impact on survival”. For the same compound, the “effect … on recurrence free survival” value ([4]; HMGCR positive or ER positive subjects, FIG. 10a) was “significantly positive effect”, the “response to tamoxifen treatment (RFS)” value ([4]; PR negative and HMGCR negative subjects, FIG. 11b) was “no response” and the “response to tamoxifen treatment (RFS)” value ([4]; PR positive and HMGCR positive subjects, FIG. 11a) was “significant response”. For the same compound, the “RFS associated with HMGCR expression” value ([4]; lymph node positive patients who received tamoxifen, FIG. 4a, p=0.001) was “improved RFS”, the “outcome (RFS) of HMGCR positive and ER negative vs HMGCR negative and ER positive patients” value ([4]; node positive subjects, FIG. 6a) was “better outcome” and the “RFS of HMGCR high vs HMGCR low category” value ([4]; patients treated with tamoxifen, FIG. 1a, p=0.001) was “significantly better RFS”. The “effect … on recurrence free survival” value ([4]; patients with HMGCR high tumors, irrespective of ER status, tamoxifen vs no adjuvant endocrine treatment, FIG. 8a) was “significantly improved survival”, the “effect … on recurrence free survival” value ([4]; patients with HMGCR low tumors, irrespective of ER status, FIG. 8b) was “no impact on survival” and the “effect of HMGCR level on RFS” value ([4]; tamoxifen treated ER negative subjects, FIG. 7a) was “positive effect on RFS”. For the same compound, the “outcome (RFS) of HMGCR positive and ER negative vs HMGCR negative and ER positive patients” value ([4]; FIG. 3a) was “better outcome”, the “recurrence-free and overall survival in tamoxifen treated patients” value ([5]; high expression (>75% nuclear fraction) of PR, irrespectively of ERα status) was “increased recurrence-free and overall survival” and the “effect from tamoxifen treatment” value ([5]; lower PR level, <75%) was “no positive effect”. For the same compound, the “disease free survival, tamoxifen vs no adjuvant treatment” value ([6]; older patients (≧60 years) with ERα+/PR+ tumors) was “significantly longer disease free survival”, the “disease free survival, tamoxifen vs no adjuvant treatment” value ([6]; younger patients (<60 years)) was “no significant effect” and the breast cancer mortality [7] was “reduces the breast cancer mortality”. The “ERα positive patients who do not respond to tamoxifen treatment” value [8] was 30-40%.
